The record followed here is patent US11484579B2, “Vitamins and alpha keto acid compositions for use in a treatment program for chronic kidney disease patients” (priority 2017, dated 2022).

The nature of the data set: Certificate of analysis: solubility. Format: physicochemical. Particulars: batch SCP-PAMA-03; specification: Soluble in water.

With `O=C(Cc1ccccc1)C(=O)[O][Mg][O]C(=O)C(=O)Cc1ccccc1` [Alpha keto phenylalanine magnesium], the Solubility entry is on record as “Soluble in water”.
